Laboratory results as given in PMC11257323, “Thermostabilization of a fungal laccase by entrapment in enzymatically synthesized levan nanoparticles” (PLOS ONE, 2024).

Biological target: T1, LevS△N70Tn38 (Leuconostoc mesenteroides, UniProt Q1L7R6)
T1 construct: truncated levansucrase LevS△N70Tn38 (name implies N-terminal 70-residue deletion); pET-22b, expressed in E. coli BL21, DEAE-purified
Test: DNS reducing-sugar assay
Assay type: biochemical
Conditions: 292 mM sucrose; 50 mM acetate pH 6.0; 1 mM CaCl2; 30°C

T1 sequence (Q1L7R6 entry or part of it): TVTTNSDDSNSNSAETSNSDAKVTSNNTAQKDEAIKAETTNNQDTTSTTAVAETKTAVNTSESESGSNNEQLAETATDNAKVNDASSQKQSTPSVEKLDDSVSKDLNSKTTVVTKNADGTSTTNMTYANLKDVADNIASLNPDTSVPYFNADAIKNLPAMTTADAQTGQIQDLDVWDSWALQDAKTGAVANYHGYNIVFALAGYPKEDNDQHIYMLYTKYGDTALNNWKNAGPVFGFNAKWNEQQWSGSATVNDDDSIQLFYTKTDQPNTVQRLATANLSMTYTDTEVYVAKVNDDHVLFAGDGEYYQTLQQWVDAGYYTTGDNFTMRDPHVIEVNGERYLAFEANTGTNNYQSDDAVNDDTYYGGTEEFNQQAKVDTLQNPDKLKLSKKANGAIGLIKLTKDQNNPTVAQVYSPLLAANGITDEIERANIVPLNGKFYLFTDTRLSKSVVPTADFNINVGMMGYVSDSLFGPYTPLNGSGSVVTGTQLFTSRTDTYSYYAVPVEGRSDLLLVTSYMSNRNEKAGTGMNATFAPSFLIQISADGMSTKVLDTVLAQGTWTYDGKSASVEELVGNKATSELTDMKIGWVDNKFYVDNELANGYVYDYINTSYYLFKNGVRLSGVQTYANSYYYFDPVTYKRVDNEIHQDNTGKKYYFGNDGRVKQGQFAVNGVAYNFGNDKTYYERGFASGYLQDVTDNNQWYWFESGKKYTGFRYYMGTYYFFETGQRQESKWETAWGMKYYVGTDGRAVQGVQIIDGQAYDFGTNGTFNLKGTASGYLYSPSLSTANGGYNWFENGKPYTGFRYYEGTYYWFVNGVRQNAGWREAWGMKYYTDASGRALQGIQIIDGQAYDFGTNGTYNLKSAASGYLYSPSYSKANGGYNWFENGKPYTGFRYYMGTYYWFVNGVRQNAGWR

OC[C@H]1O[C@@](CO)(O[C@H]2O[C@H](CO)[C@@H](O)[C@H](O)[C@H]2O)[C@@H](O)[C@@H]1O [sucrose]
DNS reducing-sugar assay: LevS△N70Tn38 activity was determined by quantification of released reducing sugars from sucrose
